Assay: xn = mol fraction of the nth substance listed
Settings: Liquid, Pulse-echo method

CCCCCCC [heptane] + CCCO
Settings | speed of sound [m/s]
313.15 K, 100 kPa, x2 = 0.1008 | 1061
313.15 K, 100 kPa, x2 = 0.4992 | 1074.8
313.15 K, 30400 kPa, x2 = 0.1008 | 1267.9
313.15 K, 45590 kPa, x2 = 0.4992 | 1349.9
313.15 K, 60790 kPa, x2 = 0.3008 | 1416.4
313.15 K, 75990 kPa, x2 = 0.4992 | 1481.4
313.15 K, 75990 kPa, x2 = 0.7016 | 1486.3
313.15 K, 91190 kPa, x2 = 0.3008 | 1539.3
313.15 K, 91190 kPa, x2 = 0.4992 | 1539.3
313.15 K, 101320 kPa, x2 = 0.4992 | 1575.5
313.15 K, 111450 kPa, x2 = 0.3008 | 1611.5
313.15 K, 121580 kPa, x2 = 0.3008 | 1645.1
313.16 K, 30400 kPa, x2 = 0.7986 | 1293.2
313.16 K, 91190 kPa, x2 = 0.1008 | 1543.3
313.16 K, 101320 kPa, x2 = 0.3008 | 1576.2
313.16 K, 121580 kPa, x2 = 0.4992 | 1643.3
313.17 K, 100 kPa, x2 = 0.3008 | 1065
313.17 K, 30400 kPa, x2 = 0.3008 | 1268.1
313.17 K, 75990 kPa, x2 = 0.3008 | 1480.3
313.17 K, 111450 kPa, x2 = 0.4992 | 1610.1
313.17 K, 111450 kPa, x2 = 0.6027 | 1610
313.17 K, 121580 kPa, x2 = 0.6027 | 1642.9
313.19 K, 101320 kPa, x2 = 0.1008 | 1580.6
313.19 K, 111450 kPa, x2 = 0.1008 | 1616.3
313.19 K, 121580 kPa, x2 = 0.1008 | 1649.7
313.2 K, 111450 kPa, x2 = 0 | 1622
313.2 K, 111450 kPa, x2 = 0.7016 | 1611.6
313.21 K, 101320 kPa, x2 = 0 | 1586.2
313.22 K, 45590 kPa, x2 = 0.7016 | 1358.4
313.22 K, 121580 kPa, x2 = 0.7016 | 1643.9
313.23 K, 30400 kPa, x2 = 0.7016 | 1284.3
313.23 K, 60790 kPa, x2 = 0.7016 | 1425.1
313.24 K, 100 kPa, x2 = 0.7016 | 1095.2
318.08 K, 100 kPa, x2 = 0.7986 | 1090.8
318.09 K, 75990 kPa, x2 = 0 | 1475.5
318.09 K, 121580 kPa, x2 = 0.7016 | 1632.8
318.11 K, 101320 kPa, x2 = 0.7986 | 1569.1
318.12 K, 45590 kPa, x2 = 0.7986 | 1351.4
318.12 K, 60790 kPa, x2 = 0.4992 | 1404.4
318.13 K, 100 kPa, x2 = 0.4992 | 1054.3
318.13 K, 30400 kPa, x2 = 0.7986 | 1277.9
318.13 K, 45590 kPa, x2 = 0.4992 | 1334.8
318.13 K, 111450 kPa, x2 = 0.7986 | 1602.7
318.13 K, 121580 kPa, x2 = 0.4992 | 1631.5
318.14 K, 100 kPa, x2 = 0.7016 | 1076.2
318.14 K, 30400 kPa, x2 = 0.4992 | 1256.9
318.14 K, 75990 kPa, x2 = 0.7986 | 1478
318.14 K, 121580 kPa, x2 = 0.7986 | 1634.8
318.15 K, 30400 kPa, x2 = 0.7016 | 1268.9
318.15 K, 45590 kPa, x2 = 0.7016 | 1344.1
318.15 K, 60790 kPa, x2 = 0.6027 | 1406.9
318.15 K, 60790 kPa, x2 = 0.7016 | 1411.6
318.15 K, 60790 kPa, x2 = 0.7986 | 1417.5
318.15 K, 75990 kPa, x2 = 0.1008 | 1469.4
318.15 K, 91190 kPa, x2 = 0 | 1535.7
318.15 K, 111450 kPa, x2 = 0.4992 | 1598
318.16 K, 45590 kPa, x2 = 0.6027 | 1338.2
318.16 K, 91190 kPa, x2 = 0.7016 | 1530.2
318.16 K, 91190 kPa, x2 = 0.7986 | 1533.9
318.16 K, 101320 kPa, x2 = 0.4992 | 1563
318.16 K, 101320 kPa, x2 = 0.7016 | 1565.9
318.17 K, 45590 kPa, x2 = 0 | 1337.4
318.17 K, 60790 kPa, x2 = 0 | 1409.6
318.17 K, 60790 kPa, x2 = 0.1008 | 1403.9
318.17 K, 75990 kPa, x2 = 0.7016 | 1473.2
318.17 K, 91190 kPa, x2 = 0.3008 | 1526.1
318.17 K, 91190 kPa, x2 = 0.4992 | 1526.3
318.17 K, 101320 kPa, x2 = 0.1008 | 1567.7
318.17 K, 111450 kPa, x2 = 0.1008 | 1603.7
318.17 K, 111450 kPa, x2 = 0.3008 | 1599
318.17 K, 111450 kPa, x2 = 0.7016 | 1600
318.17 K, 121580 kPa, x2 = 0 | 1644.3
318.17 K, 121580 kPa, x2 = 0.1008 | 1637
318.17 K, 121580 kPa, x2 = 0.3008 | 1633
318.18 K, 100 kPa, x2 = 0 | 1044.5
318.18 K, 100 kPa, x2 = 0.1008 | 1039.7
318.18 K, 15200 kPa, x2 = 0 | 1163.4
318.18 K, 15200 kPa, x2 = 0.1008 | 1157.8
318.18 K, 30400 kPa, x2 = 0 | 1256.5
318.18 K, 75990 kPa, x2 = 0.3008 | 1466.5
318.18 K, 75990 kPa, x2 = 0.4992 | 1467.8
318.18 K, 101320 kPa, x2 = 0 | 1573.6
318.18 K, 101320 kPa, x2 = 0.3008 | 1563.3
318.18 K, 111450 kPa, x2 = 0 | 1609.8
318.18 K, 121580 kPa, x2 = 0.6027 | 1631.3
318.19 K, 30400 kPa, x2 = 0.3008 | 1251.4
318.19 K, 45590 kPa, x2 = 0.1008 | 1331.6
318.19 K, 45590 kPa, x2 = 0.3008 | 1330.8
318.19 K, 60790 kPa, x2 = 0.3008 | 1401.9
318.2 K, 100 kPa, x2 = 0.6027 | 1063.5
318.2 K, 30400 kPa, x2 = 0.1008 | 1250.7
318.2 K, 101320 kPa, x2 = 0.6027 | 1563.5
318.21 K, 100 kPa, x2 = 0.3008 | 1043.8
318.21 K, 91190 kPa, x2 = 0.6027 | 1527.2
318.23 K, 30400 kPa, x2 = 0.6027 | 1261.4
318.23 K, 111450 kPa, x2 = 0.6027 | 1598
318.27 K, 75990 kPa, x2 = 0.6027 | 1469.2

Source: the NIST ThermoML archive (doi:10.1021/je030136n)
